Patent US9243002B2, “Tetracyclic heterocycle compounds and methods of use thereof for the treatment of hepatitis C” (priority 2013, dated 2016)

What was measured:
[1] = test system: HCV genotype 1b replicon; test: HCV replicon assay, genotype 1b (cell ELISA for NS3/4A); assay type: cell-based, hepatitis C virus; details: Hepatitis C virus, 96 h, read-out: 1b IC50 (nM), genotype 1b replicon cells, 96 hours incubation, NS3/4A ELISA
Description: (§1) Measurement of inhibition by compounds was performed using the HCV replicon system. Several different replicons encoding different HCV genotypes or mutations were used. In addition, potency measurements were made using different formats of the replicon assay, including different ways of measurements and different plating formats. See Jan M. Vrolijk et al., A replicons-based bioassay for the measurement of interferons in patients with chronic hepatitis C, 110 J. VIROLOGICAL METHODS 201 (2003); Steven S. Carroll et al., Inhibition of Hepatitis C Virus RNA Replication by 2′-Modified Nucleoside Analogs, 278 (14) J. BIOLOGICAL CHEMISTRY 11979 (2003). However, the underlying principles are common to all of these determinations, and are outlined below.
(§2) Stable neomycin phosphotransferase encoding replicons-harboring cell lines were used, so all cell lines were maintained under G418 selection prior to the assay. Potency was deteremined using a cell ELISA assay with an antibody to the replicons encoded NS3/4a protease. See Caterina Trozzi et al., In Vitro Selection and Characterization of Hepatitis C Virus Serine Protease Variants Resistant to an Active-Site Peptide Inhibitor, 77 (6) J. Virol. 3669 (2003). To initiate an assay, replicon cells were plated in the presence of a dilution series of test compound in the absence of G418. Typically, the assays were performed in a 96-well plate formate for manual operation, or a 384-well plate format for automated assay. Replicon cells and compound were incubated for 96 hours. At the end of the assay, cells were washed free of media and compound, and the cells were then lysed. RNA was quantified indirectly through detection of replicon-encoded NS3/4A protein levels, through an ELISA-based assay with an antibody specific for NS3/4A. IC50 determinations were calculated as a percentage of a DMSO control by fitting the data to a four-parameter fit function and the data obtained for genotypes 1a and 1b using this method is provided in the table below.

[2] = test system: HCV genotype 1a replicon; test: HCV replicon assay, genotype 1a (cell ELISA for NS3/4A); assay type: cell-based, hepatitis C virus; details: Hepatitis C virus, 96 h, read-out: 1a IC50 (nM), genotype 1a replicon cells, 96 hours incubation, NS3/4A ELISA
Description: as §1, §2

## CNC(=O)c1c(-c2ccnn2C(C)C)oc2cc(N(C)S(C)(=O)=O)c(-c3ccc4c(n3)-c3cc5c(F)cccc5n3CC4)cc12 [Example 17, 5-(11-fluoro-5,6-dihydroindolo[1,2-h][1,7]naphthyridin-2-yl)-2-(1-isopropyl-1H-pyrazol-5-yl)-N-methyl-6-(N-methylmethylsulfonamido)benzofuran-3-carboxamide]
[1]
  IC50: 197 nM
[2]
  IC50: 373 nM

## CNC(=O)c1c(-c2cnn(-c3ccccc3)c2)oc2cc(N(C)S(C)(=O)=O)c(-c3ccc4c(n3)-c3cc5c(F)cccc5n3CC4)cc12 [Example 18]
[1]
  IC50: 296 nM
[2]
  IC50: 5480 nM

## CNC(=O)c1c(-c2cnn3c2CCC3)oc2cc(N(C)S(C)(=O)=O)c(-c3ccc4c(n3)-c3cc5c(F)cccc5n3CC4)cc12 [Example 19]
[1]
  IC50: 52.3 nM
[2]
  IC50: 56.9 nM

## CNC(=O)c1c(-c2cnc(C(C)(C)O)s2)oc2cc(N(C)S(C)(=O)=O)c(-c3ccc4c(n3)-c3cc5c(F)cccc5n3CC4)cc12 [Example 20]
[1]
  IC50: 129 nM
[2]
  IC50: 680 nM

## CNC(=O)c1c(-c2cnn3c2CCCC3)oc2cc(N(C)S(C)(=O)=O)c(-c3ccc4c(n3)-c3cc5c(F)cccc5n3CC4)cc12 [Example 21]
[1]
  IC50: 34.3 nM
[2]
  IC50: 149 nM

## CNC(=O)c1c(-c2cnc(N3CCCC3)s2)oc2cc(N(C)S(C)(=O)=O)c(-c3ccc4c(n3)-c3cc5c(F)cccc5n3CC4)cc12 [Example 22]
[1]
  IC50: 163 nM
[2]
  IC50: 1450 nM

## CNC(=O)c1c(-c2cnn(CCO)c2)oc2cc(N(C)S(C)(=O)=O)c(-c3ccc4c(n3)-c3cc5c(F)cccc5n3CC4)cc12 [Example 23]
[1]
  IC50: 83.2 nM
[2]
  IC50: 212 nM

## CNC(=O)c1c(-c2cnn3ncccc23)oc2cc(N(C)S(C)(=O)=O)c(-c3ccc4c(n3)-c3cc5c(F)cccc5n3CC4)cc12 [Example 24]
[1]
  IC50: 18.9 nM
[2]
  IC50: 20 nM

## CNC(=O)c1c(-c2ccn[nH]2)oc2cc(N(C)S(C)(=O)=O)c(-c3ccc4c(n3)-c3cc5c(F)cccc5n3CC4)cc12 [Example 25]
[1]
  IC50: 99.4 nM
[2]
  IC50: 287 nM

## CNC(=O)c1c(-c2c(C)n[nH]c2C)oc2cc(N(C)S(C)(=O)=O)c(-c3ccc4c(n3)-c3cc5c(F)cccc5n3CC4)cc12 [Example 26]
[1]
  IC50: 84.4 nM
[2]
  IC50: 69.3 nM

## CCn1cc(-c2oc3cc(N(C)S(C)(=O)=O)c(-c4ccc5c(n4)-c4cc6c(F)cccc6n4CC5)cc3c2C(=O)NC)cn1 [Example 27]
[1]
  IC50: 11.1 nM
[2]
  IC50: 9.13 nM

## CNC(=O)c1c(-c2ccc(C(F)F)cc2)oc2cc(N(C)S(C)(=O)=O)c(-c3ccc4c(n3)-c3cc5c(F)cccc5n3CC4)cc12 [Example 29, 2-(4-(difluoromethyl)phenyl)-5-(11-fluoro-5,6-dihydroindolo[1,2-h][1,7]naphthyridin-2-yl)-N-methyl-6-(N-methylmethylsulfonamido)benzofuran-3-carboxamide]
[1]
  IC50: 15.5 nM
[2]
  IC50: 13.5 nM

## CNC(=O)c1c(-c2ccc(F)cc2F)oc2cc(N(C)S(C)(=O)=O)c(-c3ccc4c(n3)-c3cc5c(F)cccc5n3CC4)cc12 [Example 30, 2-(2,4-difluorophenyl)-5-(11-fluoro-5,6-dihydroindolo[1,2-h][1,7]naphthyridin-2-yl)-N-methyl-6-(N-methylmethylsulfonamido)benzofuran-3-carboxamide]
[1]
  IC50: 3.81 nM
[2]
  IC50: 2.49 nM

## CNC(=O)c1c(-c2ccc(F)cc2)oc2cc(N(C)S(C)(=O)=O)c(-c3ccc4c(n3)-c3cc5cc(F)ccc5n3CC4)cc12 [Example 31, 5-(10-fluoro-5,6-dihydroindolo[1,2-h][1,7]naphthyridin-2-yl)-2-(4-fluorophenyl)-N-methyl-6-(N-methylmethylsulfonamido)benzofuran-3-carboxamide]
[1]
  IC50: 4.64 nM
[2]
  IC50: 4.53 nM

## CNC(=O)c1c(-n2ccc(C)cc2=O)oc2cc(N(C)S(C)(=O)=O)c(-c3ccc4c(n3)-c3cc5c(F)cccc5n3CC4)cc12 [Example 32, 5-(11-fluoro-5,6-dihydroindolo[1,2-h][1,7]naphthyridin-2-yl)-N-methyl-2-(4-methyl-2-oxopyridin-1 (2H)-yl)-6-(N-methylmethylsulfonamido)benzofuran-3-carboxamide]
[1]
  IC50: 3.95 nM
[2]
  IC50: 10.6 nM

## CNC(=O)c1c(-n2cc(C(F)(F)F)cn2)oc2cc(N(C)S(C)(=O)=O)c(-c3ccc4c(n3)-c3cc5c(F)cccc5n3CC4)cc12 [Example 33]
[1]
  IC50: 23.6 nM
[2]
  IC50: 170 nM

## CNC(=O)c1c(-n2ccccc2=O)oc2cc(N(C)S(C)(=O)=O)c(-c3ccc4c(n3)-c3cc5c(F)cccc5n3CC4)cc12 [Example 34]
[1]
  IC50: 4.66 nM
[2]
  IC50: 5.38 nM

## CNC(=O)c1c(-c2nocc2C)oc2cc(N(C)S(C)(=O)=O)c(-c3ccc4c(n3)-c3cc5c(F)cccc5n3CC4)cc12 [Example 35, 5-(11-fluoro-5,6-dihydroindolo[1,2-h][1,7]naphthyridin-2-yl)-N-methyl-2-(4-methylisoxazol-3-yl)-6-(N-methylmethylsulfonamido)benzofuran-3-carboxamide]
[1]
  IC50: 5.19 nM
[2]
  IC50: 3.28 nM

## CNC(=O)c1c(-c2cnc(C)s2)oc2cc(N(C)S(C)(=O)=O)c(-c3ccc4c(n3)-c3cc5c(F)cccc5n3CC4)cc12 [Example 36, 5-(11-fluoro-5,6-dihydroindolo[1,2-h][1,7]naphthyridin-2-yl)-N-methyl-6-(N-methylmethylsulfonamido)-2-(2-methylthiazol-5-yl)benzofuran-3-carboxamide]
[1]
  IC50: 10.2 nM
[2]
  IC50: 10.3 nM

## CNC(=O)c1c(-c2cncs2)oc2cc(N(C)S(C)(=O)=O)c(-c3ccc4c(n3)-c3cc5c(F)cccc5n3CC4)cc12 [Example 37]
[1]
  IC50: 14.2 nM
[2]
  IC50: 9.83 nM

## CCc1ncc(-c2oc3cc(N(C)S(C)(=O)=O)c(-c4ccc5c(n4)-c4cc6c(F)cccc6n4CC5)cc3c2C(=O)NC)s1 [Example 38]
[1]
  IC50: 17 nM
[2]
  IC50: 21.8 nM

## CNC(=O)c1c(-c2ccc(F)cc2)oc2cc(N(C)S(C)(=O)=O)c(-c3cc4c(cn3)CCn3c-4cc4c(F)cccc43)cc12 [Example 39, 5-(11-fluoro-5,6-dihydroindolo[2,1-a][2,6]naphthyridin-2-yl)-2-(4-fluorophenyl)-N-methyl-6-(N-methylmethylsulfonamido)benzofuran-3-carboxamide]
[1]
  IC50: 2.83 nM
[2]
  IC50: 2.71 nM

## CNC(=O)c1c(-c2ccc(C)nc2)oc2cc(N(C)S(C)(=O)=O)c(-c3cc4c(cn3)CCn3c-4cc4c(F)cccc43)cc12 [Example 40]
[1]
  IC50: 17.1 nM
[2]
  IC50: 16.6 nM

## CNC(=O)c1c(-c2ccc(F)cc2)oc2cc(N(C)S(C)(=O)=O)c(-c3cnc4c(c3)-c3cc5c(F)cccc5n3CC4)cc12 [Example 43, 5-(11-fluoro-5,6-dihydroindolo[2,1-f][1,6]naphthyridin-2-yl)-2-(4-fluorophenyl)-N-methyl-6-(N-methylmethylsulfonamido)benzofuran-3-carboxamide]
[1]
  IC50: 3.7 nM
[2]
  IC50: 1.74 nM

## CNC(=O)c1c(-c2ccc(F)cc2)oc2cc(N(C)S(C)(=O)=O)c(-c3cnc4c(n3)-c3cc5c(F)cccc5n3CC4)cc12 [Example 44, 5-(11-fluoro-5,6-dihydropyrazino[2′,3′:3,4]pyrido[1,2-a]indol-2-yl)-2-(4-fluorophenyl)-N-methyl-6-(N-methylmethylsulfonamido)benzofuran-3-carboxamide]
[1]
  IC50: 1.87 nM
[2]
  IC50: 1.76 nM

## CNC(=O)c1c(-c2ccc(F)cc2)oc2nc(N(C)S(C)(=O)=O)c(-c3ccc4c(n3)-c3cc5c(F)cccc5n3CC4)cc12 [Example 45, 5-(11-fluoro-5,6-dihydroindolo[1,2-h][1,7]naphthyridin-2-yl)-2-(4-fluorophenyl)-N-methyl-6-(N-methylmethylsulfonamido)furo[2,3-b]pyridine-3-carboxamide]
[1]
  IC50: 8.72 nM
[2]
  IC50: 4.29 nM

## CNC(=O)c1c(-c2ccc(F)cc2)nn2cc(N(C)S(C)(=O)=O)c(-c3ccc4c(n3)-c3cc5c(F)cccc5n3CC4)cc12 [Example 46, 5-(11-fluoro-5,6-dihydroindolo[1,2-h][1,7]naphthyridin-2-yl)-2-(4-fluorophenyl)-N-methyl-6-(N-methylmethylsulfonamido)pyrazolo[1,5-a]pyridine-3-carboxamide]
[1]
  IC50: 2.4 nM
[2]
  IC50: 2.23 nM

## CNC(=O)c1c2cc(-c3ccc4c(n3)-c3cc5c(F)cccc5n3CC4)c(N(C)S(C)(=O)=O)cc2nn1-c1ccc(F)cc1 [Example 47, 5-(11-fluoro-5,6-dihydroindolo[1,2-h][1,7]naphthyridin-2-yl)-2-(4-fluorophenyl)-N-methyl-6-(N-methylmethylsulfonamido)-2H-indazole-3-carboxamide]
[1]
  IC50: 8.46 nM
[2]
  IC50: 14.5 nM
